Data on 21 molecules can be found in US20250032454A1, “KDM1A INHIBITORS FOR THE TREATMENT OF DISEASE” (Imago Biosciences, Inc., priority 2021, published 2025).

Read-outs that look alike come from different tables or passages of the source.

The target of one assay is LSD1 (Homo sapiens, UniProt O60341). Description: LSD1 fluorescence coupling enzyme assay (HRP/Amplex Red, H3(1-21)K4me2 peptide), 10-dose IC50. The note with it: 10 μM histone H3(1-21)K4me2 peptide substrate, 3-fold serial dilution from 100 μM. Type of assay: biochemical. The text has this:
Assaying the inhibition of KDM1A can be determined in vitro, in cultured cells, and in animals. There are a variety of spectrophotometric methods to detect the results of demethylation of methylated lysines, viz., detecting the products of KDM1A demethylase oxidative activity on a peptide fragment of at least 18 amino acids representing the N-terminus of the histone H3 substrate that contains a monomethyl at the fourth lysine residue. Hydrogen peroxide, one product of the KDM1A demethylase reaction, reacts with horseradish peroxidase and dihydroxyphenoxazine (ADHP) to produce the fluorescent compound resorufin (excitation=530-560 nm: emission=590 nm). The KDM1A demethylase enzyme activity can be obtained from mammalian cells or tissues expressing KDM1A from an endogenous or recombinant gene and purified or assayed from a whole cell extract. These methods can be used to determine the concentration of the disclosed compounds can inhibit fifty percent of the enzyme activity (IC50).
Alternatively, the production of H2O2 during the KDM1A reaction can be detected fluometrically. In this system, the production of H2O2 is detected in the HDM assay buffer after exposure to substrate, co-factor and enzyme using ADHP (10-Acetyl-3, 7-dihydroxyphenoxazine) as a fluorogenic substrate for horse radish peroxidase (HRP). […] The florescent product is resorufin. Sensitivity can be as low as 10-15 M of target protein. The signal is read using a fluorescence microplate reader at excitation and emission wavelengths of 530-560 nm and 590 nm, respectively.
Compounds were tested in a 10-dose IC50 mode fluorescence coupling enzyme assay with 3-fold serial dilution in duplicate starting at 100 μM. The production of FAD-dependent H2O2 as a result of demethylase activity of LSD1 on 10 μM histone H3(1-21)K4me2 peptide substrate was measured by coupling with HRP and Amplex Red to yield resorufin (fluorescence measured at Ex/Em=535/590 nm on EnVision, Perkin Elmer).

In another assay the test system is MV4;11 cells. Description: Cell Titer-Glo cell growth inhibition in MV4;11 cell line (Day 5 / Day 10). Type of assay: cell-based. The following applies: Homo sapiens. On the procedure: Cell growth inhibition against MV4;11 cells was confirmed for the synthetic compounds. The Cell Titer-Glo Luminescent Cell Viability Assay (Promega, USA) was used to determine the number of viable cells in culture based on quantitation of the ATP present, which signals the presence of metabolically active cells. This assay was run in a 96-well plate format arrayed in a 10-point dose curve, ranging from 0 to 50 µM with 4-fold dilutions for each compound. Cells are seeded on Day 0 at 3750 cells per well. At Day 5, a portion of each well is assayed for viability according to the Cell Titer-Glo protocol. Briefly, cells/plates were centrifuged at 1100×g for 5 minutes. 100 μL of media was removed from each well and replaced with 100 μL of CellTiter-Glo. The plates were shaken at room temperature for 10 minutes and measured on a luminescence plate reader. Another portion of each well from the Day 5 plate is used to seed a new 96 plate containing fresh compound and media set up in the equivalent 10-point dose curve array in order to continue the cell growth inhibition assay for another 5 days. A final timepoint is collected at Day 10 using the Cell Titer-Glo protocol. Luminescence was detected on an En Vision® Multilabel Plate Reader (Perkin Elmer, Waltham, Mass.) and IC50 determination was made using Graph Pad Prism software.

At LSD1, `COc1ccc(-n2nc(NC[C@@H]3CCCNC3)cc2-c2ccc(C#N)c(F)c2)cc1` [Example 3R, (R)-2-fluoro-4-(1-(4-methoxyphenyl)-3-((piperidin-3-ylmethyl)amino)-1H-pyrazol-5-yl)benzonitrile] gave an IC50 of under 500 nM.
The same measure, in the same setting: the figure for `COc1ccc(-n2nc(NC[C@H]3CCCNC3)cc2-c2ccc(C#N)c(F)c2)cc1` [Example 3S, (S)-2-fluoro-4-(1-(4-methoxyphenyl)-3-((piperidin-3-ylmethyl)amino)-1H-pyrazol-5-yl)benzonitrile] is under 500 nM.
Turning to `N#Cc1ccc(-c2cc(NCC3CCC[C@H](N)C3)nn2-c2ccc3nn(-c4ccncc4)cc3c2)cc1F` (stereo partly drawn) [Example 75, 4-(3-((((15,3S)-3-aminocyclohexyl)methyl)amino)-1-(2-(pyridin-4-yl)-2H-indazol-5-yl)-1H-pyrazol-5-yl)-2-fluorobenzonitrile], the IC50 was 500 to 1000 nM in the assay on MV4;11 cells (MV4-11, 120 h, Day 5, read-out: Cell Titer-Glo IC50 (5 d)) and under 500 nM in the assay on MV4;11 cells (MV4-11, 240 h, Day 10, read-out: Cell Titer-Glo IC50 (10 d)).
Molecule `COc1ccc(-n2nc(NC[C@@H]3CCC[C@H](CN)C3)cc2-c2ccc(C#N)c(F)c2)cc1` [Example 79, 4-(3-((((1R,3S)-3-(aminomethyl)cyclohexyl)methyl)amino)-1-(4-methoxyphenyl)-1H-pyrazol-5-yl)-2-fluorobenzonitrile] came in with a concentration for half-maximal inhibition (IC50) on LSD1 of 1000 to 10000 nM.
Regarding `COc1ccc(-n2nc(NC[C@H]3CCC[C@H](CN)C3)cc2-c2ccc(C#N)c(F)c2)cc1` [Example 80, 4-(3-((((15,3S)-3-(aminomethyl)cyclohexyl)methyl)amino)-1-(4-methoxyphenyl)-1H-pyrazol-5-yl)-2-fluorobenzonitrile], the IC50 against LSD1 was 500 to 1000 nM.
On the same count and under the same terms, in the case of `N#Cc1ccc(-c2cc(NC[C@H]3CCC[C@H](N)C3)nn2-c2ccc(N3CCC(O)CC3)cc2)cc1F` [Example 89, 4-(3-((((1S,3S)-3-aminocyclohexyl)methyl)amino)-1-(4-(4-hydroxypiperidin-1-yl)phenyl)-1H-pyrazol-5-yl)-2-fluorobenzonitrile] it was under 500 nM.
Take `N#Cc1ccc(-c2cc(NCC3CCCNCC3)nn2-c2ccc(N3CC[S+]([O-])CC3)cc2)cc1F` (stereo not shown) [Example 90, 4-(3-((Azepan-4-ylmethyl)amino)-1-(4-(1-oxidothiomorpholino)phenyl)-1H-pyrazol-5-yl)-2-fluorobenzonitrile 2,2,2-trifluoroacetate]: the concentration for half-maximal inhibition (IC50) on LSD1 was under 500 nM.
Still for that read-out and setting: in the case of `N#Cc1ccc(-c2cc(NC[C@@H]3CCCNCC3)nn2-c2ccc(N3CC[S+]([O-])CC3)cc2)cc1F` [Example 91, (R)-4-(3-((azepan-4-ylmethyl)amino)-1-(4-(1-oxidothiomorpholino)phenyl)-1H-pyrazol-5-yl)-2-fluorobenzonitrile 2,2,2-trifluoroacetate] it was under 500 nM.
The same measure, in the same setting: the figure for `COC1CCN(c2ccc(-n3nc(NC[C@H]4CCC[C@H](N)C4)cc3-c3ccc(C#N)c(F)c3)c(F)c2)CC1` [Example 92, 4-(3-((((1S,3S)-3-aminocyclohexyl)methyl)amino)-1-(2-fluoro-4-(4-methoxypiperidin-1-yl)phenyl)-1H-pyrazol-5-yl)-2-fluorobenzonitrile 2,2,2-trifluoroacetate] is under 500 nM; for `CN(c1ccc(-n2nc(NC[C@H]3CCC[C@H](N)C3)cc2-c2ccc(C#N)c(F)c2)cc1)C1CCOCC1` [Example 93, 4-(3-((((1S,3S)-3-aminocyclohexyl)methyl)amino)-1-(4-(methyl(tetrahydro-2H-pyran-4-yl)amino)phenyl)-1H-pyrazol-5-yl)-2-fluorobenzonitrile 2,2,2-trifluoroacetate] it is under 500 nM.
`CC(C)OC1CCN(c2ccc(-n3nc(NC[C@H]4CCC[C@H](N)C4)cc3-c3ccc(C#N)c(F)c3)cc2)CC1` [Example 94, 4-(3-((((1S,3S)-3-aminocyclohexyl)methyl)amino)-1-(4-(4-isopropoxypiperidin-1-yl)phenyl)-1H-pyrazol-5-yl)-2-fluorobenzonitrile 2,2,2-trifluoroacetate] displayed a concentration for half-maximal inhibition (IC50) at LSD1 of under 500 nM.
Molecule `N#Cc1ccc(-c2cc(NC[C@H]3CCC[C@H](N)C3)nn2-c2ccc(N3CCC4(CCCO4)CC3)cc2)cc1F` [Example 95, 4-(1-(4-(1-Oxa-8-azaspiro[4.5]decan-8-yl)phenyl)-3-((((1S,3S)-3-aminocyclohexyl)methyl)amino)-1H-pyrazol-5-yl)-2-fluorobenzonitrile 2,2,2-trifluoroacetate] registered an IC50 against LSD1 of under 500 nM.
`N#Cc1ccc(-c2cc(NC[C@H]3CCC[C@H](N)C3)nn2-c2ccc(N3CCOCC3)cc2)cc1F` [Example 96, 4-(3-((((1S,3S)-3-aminocyclohexyl)methyl)amino)-1-(4-morpholinophenyl)-1H-pyrazol-5-yl)-2-fluorobenzonitrile 2,2,2-trifluoroacetate] yielded a half-maximal inhibitory concentration (IC50) against LSD1 of under 500 nM.
On the same count and under the same terms, in the case of `CCOC1CCN(c2ccc(-n3nc(NC[C@H]4CCC[C@H](N)C4)cc3-c3ccc(C#N)c(F)c3)cc2)CC1` [Example 97, 4-(3-((((1S,3S)-3-aminocyclohexyl)methyl)amino)-1-(4-(4-ethoxypiperidin-1-yl)phenyl)-1H-pyrazol-5-yl)-2-fluorobenzonitrile 2,2,2-trifluoroacetate] it was under 500 nM.
With `CO[C@H]1CCCN(c2ccc(-n3nc(NC[C@H]4CCC[C@H](N)C4)cc3-c3ccc(C#N)c(F)c3)cc2)C1` [Example 98, 4-(3-((((1S,3S)-3-aminocyclohexyl)methyl)amino)-1-(4-((S)-3-methoxypiperidin-1-yl)phenyl)-1H-pyrazol-5-yl)-2-fluorobenzonitrile 2,2,2-trifluoroacetate], the IC50 against LSD1 is under 500 nM.
The same measure, in the same setting: the figure for `N#Cc1ccc(-c2cc(NC[C@H]3CCC[C@H](N)C3)nn2-c2ccc(N3CCSCC3)cc2)cc1F` [Example 99, 4-(3-((((1S,3S)-3-aminocyclohexyl)methyl)amino)-1-(4-thiomorpholinophenyl)-1H-pyrazol-5-yl)-2-fluorobenzonitrile] is under 500 nM; for `N#Cc1ccc(-c2cc(NC[C@@H]3CCC[C@@H](N)C3)nn2-c2ccc(N3CCSCC3)cc2)cc1F` [Example 100, 4-(3-((((1R,3R)-3-aminocyclohexyl)methyl)amino)-1-(4-thiomorpholinophenyl)-1H-pyrazol-5-yl)-2-fluorobenzonitrile] it is under 500 nM.
As to `CC1(O)CCN(c2ccc(-n3nc(NC[C@H]4CCC[C@H](N)C4)cc3-c3ccc(C#N)c(F)c3)cc2)CC1` [Example 101, 4-(3-((((1S,3S)-3-aminocyclohexyl)methyl)amino)-1-(4-(4-hydroxy-4-methylpiperidin-1-yl)phenyl)-1H-pyrazol-5-yl)-2-fluorobenzonitrile 2,2,2-trifluoroacetate], the IC50 on LSD1 is under 500 nM.
`COC1(C)CCN(c2ccc(-n3nc(NC[C@H]4CCC[C@H](N)C4)cc3-c3ccc(C#N)c(F)c3)cc2)CC1` [Example 102, 4-(3-((((1S,3S)-3-aminocyclohexyl)methyl)amino)-1-(4-(4-methoxy-4-methylpiperidin-1-yl)phenyl)-1H-pyrazol-5-yl)-2-fluorobenzonitrile 2,2,2-trifluoroacetate]: at LSD1, the IC50 was under 500 nM.
Still for that read-out and setting: in the case of `N#Cc1ccc(-c2cc(NC[C@H]3CCC[C@H](N)C3)nn2-c2ccc(N3CCC(C#N)CC3)cc2)cc1F` [Example 103, 1-(4-(3-((((1S,3S)-3-aminocyclohexyl)methyl)amino)-5-(4-cyano-3-fluorophenyl)-1H-pyrazol-1-yl)phenyl)piperidine-4-carbonitrile 2,2,2-trifluoroacetate] it was under 500 nM.
The same measure, in the same setting: the figure for `N#Cc1ccc(-c2cc(NC[C@H]3CCC[C@H](N)C3)nn2-c2ccc(N3CCNC(=O)C3)cc2)cc1F` [Example 104, 4-(3-((((1S,3S)-3-aminocyclohexyl)methyl)amino)-1-(4-(3-oxopiperazin-1-yl)phenyl)-1H-pyrazol-5-yl)-2-fluorobenzonitrile] is under 500 nM.
